Key:
[1] = Zn levels in cerebrospinal fluid of rats fed Zn compositions; format: in vivo, Sprague-Dawley rats; settings: oral gavage, about 1 mg elemental zinc per kg per day for 3 weeks, compared with Zinc gluconate
Description: Sprague-Dawley rats are fed various […] compositions by oral gavage so as to provide about 1 mg elemental zinc per kg per day for 3 weeks. The zinc compositions include Zn-DHA, Zn-DHA-LysoPC and Zn-EPA. Control rats were administered equivalent molar amount of zinc gluconate. Cerebrospinal fluid is collected at the end of the treatment, and zinc is measured by atomic absorption spectroscopy.

Sprague-Dawley rats = assay: Forced Swim Test; format: in vivo; settings: diet
Text: Sprague-Dawley rats are fed diet supplemented with Mg-DHA, Mg Citrate, or DHA. […] Various established parameters of antidepressant activity including reduced immobility time, increased swimming, and increased climbing behavior are quantitated to assess the antidepressant activity.
Sprague-Dawley rats are fed diet supplemented with Mg-DHA-LysoPC, Mg Citrate, or DHA-lysoPC. […] Various established parameters of antidepressant activity including reduced immobility time, increased swimming, and increased climbing behavior are quantitated to assess the antidepressant activity.
Sprague-Dawley rats are fed diet supplemented with Mg-EPA, Mg Citrate, or EPA. […] Various established parameters of antidepressant activity including reduced immobility time, increased swimming, and increased climbing behavior are quantitated to assess the antidepressant activity.
(§1) Sprague-Dawley rats are fed diet supplemented with Zn-DHA, Zinc gluconate, or DHA. On Zn-DHA or Zinc gluconate supplemented diet, rats consume about 1 mg/kg body weight/day of elemental zinc, on a feeding schedule so as to maintain 85% of its free-feeding weight. […] Various established parameters of antidepressant activity including reduced immobility time, increased swimming, and increased climbing behavior are quantitated to assess the antidepressant activity.
as §1, with “Zn-DHA-lysoPC, zinc” for “Zn-DHA, Zinc”, “Zn-DHA-lysoPC” for “Zn-DHA”, “zinc” for “Zinc”
as §1, with “Zn-EPA, zinc” for “Zn-DHA, Zinc”, “EPA.” for “DHA.”, “Zn-EPA” for “Zn-DHA”, “zinc” for “Zinc”
Sprague-Dawley rats are fed diet supplemented with Li-DHA, lithium carbonate, or DHA. […] Various established parameters of antidepressant activity including reduced immobility time, increased swimming, and increased climbing behavior are quantitated to assess the antidepressant activity.
Sprague-Dawley rats are fed diet supplemented with Li-DHA-lysoPC, lithium carbonate, or DHA. […] Various established parameters of antidepressant activity including reduced immobility time, increased swimming, and increased climbing behavior are quantitated to assess the antidepressant activity.
Sprague-Dawley rats are fed diet supplemented with Li-EPA, lithium carbonate, or EPA. […] Various established parameters of antidepressant activity including reduced immobility time, increased swimming, and increased climbing behavior are quantitated to assess the antidepressant activity.

[2] = about 1 mg/kg body weight/day elemental zinc, compared with the fatty acid alone or zinc gluconate
[3] = about 50 mg/kg/day elemental Mg, compared with the fatty acid alone or Mg Citrate

Compound | CSF levels of Zn [1] | immobility time (Sprague-Dawley rats; [2]) | swimming and climbing behavior (Sprague-Dawley rats; [2]) | immobility time (Sprague-Dawley rats; [3]) | swimming and climbing behavior (Sprague-Dawley rats; [3])
CC/C=C\C/C=C\C/C=C\C/C=C\C/C=C\CCCC(=O)[O-].CC/C=C\C/C=C\C/C=C\C/C=C\C/C=C\CCCC(=O)[O-].[Zn+2] [Zn-EPA] | higher | reduction | significant increase | – | –
CC/C=C\C/C=C\C/C=C\C/C=C\C/C=C\C/C=C\CCC(=O)[O-].CC/C=C\C/C=C\C/C=C\C/C=C\C/C=C\C/C=C\CCC(=O)[O-].[Zn+2] [Zn-DHA] | higher | reduction | significant increase | – | –
CC/C=C\C/C=C\C/C=C\C/C=C\C/C=C\C/C=C\CCC(=O)[O-].CC/C=C\C/C=C\C/C=C\C/C=C\C/C=C\C/C=C\CCC(=O)[O-].[Mg+2] [Mg-DHA] | – | – | – | reduction | significant increase
CC/C=C\C/C=C\C/C=C\C/C=C\C/C=C\CCCC(=O)[O-].CC/C=C\C/C=C\C/C=C\C/C=C\C/C=C\CCCC(=O)[O-].[Mg+2] [Mg-EPA] | – | – | – | reduction | significant increase

Source: patent US20130123355A1, “Fatty acids and metal ions compositions and uses thereof” (priority 2011, published 2013)
